Source: patent publication US20080039319A1, “Fungicidal Mixtures and Novel Triazolopyrimidines” (Basf Aktiengesellschaft, priority 2004, published 2008)

Experiments:
Alternaria solani [1] = assay: Comparative Test 1: activity against early blight of tomato caused by Alternaria solani; assay type: in vivo; conditions: individual active compound
Phytophthora infestans = conditions: in vivo
Plasmopara viticola = assay: Comparative Test 3: activity against Peronospora of grapevines caused by Plasmopara viticola; assay type: in vivo; conditions: individual active compound
Sphaerotheca fuliginea = assay: Use Example 8: activity against mildew on cucumber leaves caused by Sphaerotheca fuliginea, protective application; conditions: in vivo
[2] = tested on: Pyrenophora [syn. Drechslera] teres; assay: Use Example 4: net blotch of barley caused by Pyrenophora teres, second test; assay type: in vivo; conditions: individual active compound
Alternaria solani [3] = assay: Use Example 6: activity against early blight of tomato caused by Alternaria solani (second test); assay type: in vivo; conditions: individual active compound
Botrytis cinerea = assay: Use Example 7: activity against gray mold on bell pepper leaves caused by Botrytis cinerea, protective application; assay type: in vivo; conditions: individual active compound
[4] = tested on: Pyrenophora [syn. Drechslera] teres; assay: Use Example 4: activity against net blotch of barley caused by Pyrenophora teres, 1-day protective application (first test); assay type: in vivo; conditions: individual active compound
[5] = tested on: Erysiphe [syn. Blumeria] graminis forma specialis. Tritici; assay: Use Example 5: activity against mildew of wheat caused by Erysiphe [syn. Blumeria] graminis forma specialis tritici, 3-day protective application; assay type: in vivo, Erysiphe graminis f. sp. tritici; conditions: individual active compound

CC1CCN(c2c(-c3c(F)cccc3Cl)c(Cl)nc3ncnn23)CC1 [(π)]
Efficacy in % of the untreated control (Alternaria solani [1]; 2.5 ppm in the spray liquor): 0%
Efficacy in % of the untreated control (Alternaria solani [1]; 5 ppm in the spray liquor): 21%
Efficacy in % of the untreated control (Alternaria solani [1]; 10 ppm in the spray liquor): 44%
Efficacy in % of the untreated control (Phytophthora infestans): 0%
Efficacy in % of the untreated control (Plasmopara viticola; 5 ppm in the spray liquor): 5%
Efficacy in % of the untreated control (Plasmopara viticola; 10 ppm in the spray liquor): 19%

COCC(=O)N(c1c(C)cccc1C)C(C)C(=O)OC (racemic) [metalaxyl (C-1), methyl N-(methoxyacetyl)-N-(2,6-xylyl)-DL-alaninate]
Efficacy in % of the untreated control (Alternaria solani [1]; 6.25 ppm in the spray liquor): 0%
Efficacy in % of the untreated control (Alternaria solani [1]; 50 ppm in the spray liquor): 0%

N#Cc1c[nH]cc1-c1cccc2c1OC(F)(F)O2 [fludioxonil (O-1), 4-(2,2-difluorobenzo[1,3]dioxol-4-yl)-1H-pyrrole-3-carbonitrile]
Efficacy in % of the untreated control (Sphaerotheca fuliginea): 56%

COc1ccc(C(=CC(=O)N2CCOCC2)c2ccc(Cl)cc2)cc1OC [dimethomorph (G-1), 3-(4-chlorophenyl)-3-(3,4-dimethoxyphenyl)-1-morpholin4-ylpropenone]
Efficacy in % of the untreated control (Alternaria solani [1]; 3.125 ppm in the spray liquor): 0%
Efficacy in % of the untreated control (Alternaria solani [1]; 12.5 ppm in the spray liquor): 0%
Efficacy in % of the untreated control (Alternaria solani [1]; 25 ppm in the spray liquor): 0%
Efficacy in % of the untreated control (Alternaria solani [1]; 50 ppm in the spray liquor): 0%

zinc ammoniate ethylenebis(dithiocarbamate) [metiram (K-2)]
Efficacy in % of the untreated control ([2]; 12.5 ppm in the spray liquor): 0%
Efficacy in % of the untreated control ([2]; 50 ppm in the spray liquor): 0%
Efficacy in % of the untreated control ([2]; 100 ppm in the spray liquor): 0%

COC(=O)N(OC)c1ccccc1COc1ccn(-c2ccc(Cl)cc2)n1 [pyraclostrobin (B-1), methyl N-{2-[1-(4-chlorophenyl)-1H-pyrazol-3-yloxymethyl]phenyl}(N-methoxy)carbamate]
Efficacy in % of the untreated control (Alternaria solani [3]; 0.3125 ppm in the spray liquor): 22%
Efficacy in % of the untreated control (Alternaria solani [3]; 0.625 ppm in the spray liquor): 56%

S1SSSSSSS1 [sulfur (M-1), sulfur]
Efficacy in % of the untreated control (Botrytis cinerea; 0.3125 ppm in the spray liquor): 22%
Efficacy in % of the untreated control (Botrytis cinerea; 0.625 ppm in the spray liquor): 56%

OC(Cn1cncn1)(c1ccc(F)cc1)c1ccccc1F (stereo not shown) [flutriafol (A-2), 1-(4-fluorophenyl)-1-(2-fluorophenyl)-2-[1,2,4]triazol-1-ylethanol]
Efficacy in % of the untreated control ([4]; 1.25 ppm in the spray liquor): 0%
Efficacy in % of the untreated control ([4]; 2.5 ppm in the spray liquor): 0%
Efficacy in % of the untreated control ([4]; 5 ppm in the spray liquor): 0%

Fc1ccc([C@]2(Cn3cncn3)O[C@H]2c2ccccc2Cl)cc1 (racemic) [epoxiconazole (A-1), (2RS,3SR)-1-[3-(2-chlorophenyl)-2,3-epoxy-2-(4-fluorophenyl)propyl]-1H-1,2,4-triazole]
Efficacy in % of the untreated control ([4]; 1.25 ppm in the spray liquor): 0%
Efficacy in % of the untreated control ([4]; 2.5 ppm in the spray liquor): 20%
Efficacy in % of the untreated control ([4]; 5 ppm in the spray liquor): 77%

N#Cc1c(Cl)c(Cl)c(Cl)c(C#N)c1Cl [chlorothalonil (Q-1), 2,4,5,6-tetrachloroisophthalonitrile]
Efficacy in % of the untreated control ([2]; 12.5 ppm in the spray liquor): 0%
Efficacy in % of the untreated control ([2]; 50 ppm in the spray liquor): 0%
Efficacy in % of the untreated control ([2]; 100 ppm in the spray liquor): 0%

O=C(Nc1ccccc1-c1ccc(Cl)cc1)c1cccnc1Cl [boscalid (L-2), 2-chloro-N-(4′-chlorobiphenyl-2-yl)nicotinamide]
Efficacy in % of the untreated control (Phytophthora infestans): 0%

CC1(C)CCC(Cc2ccc(Cl)cc2)C1(O)Cn1cncn1 (stereo not shown) [metconazole (A-3), 5-(4-chlorobenzyl)-2,2-dimethyl-1-[1,2,4]triazol-1-ylmethylcyclopentanol]
Efficacy in % of the untreated control ([4]; 1.25 ppm in the spray liquor): 0%
Efficacy in % of the untreated control ([4]; 2.5 ppm in the spray liquor): 0%
Efficacy in % of the untreated control ([4]; 5 ppm in the spray liquor): 0%

manganese ethylenebis(dithiocarbamate) zinc complex [mancozeb (K-1)]
Efficacy in % of the untreated control ([2]; 6.3 ppm in the spray liquor): 0%
Efficacy in % of the untreated control ([2]; 12.5 ppm in the spray liquor): 0%
Efficacy in % of the untreated control ([2]; 50 ppm in the spray liquor): 0%

CC(C)OC(=O)c1cc(C(=O)OC(C)C)cc([N+](=O)[O-])c1 [nitrophthal-isopropyl (N-1), diisopropyl 5-nitroisophthalate]
Efficacy in % of the untreated control (Botrytis cinerea; 12.5 ppm in the spray liquor): 0%
Efficacy in % of the untreated control (Botrytis cinerea; 100 ppm in the spray liquor): 33%

O=C1C2CC=CCC2C(=O)N1SC(Cl)(Cl)Cl (stereo not shown) [captan (P-1), 2-trichloromethylsulfanyl-3a,4,7,7a-tetrahydroisoindole-1,3-dione]
Efficacy in % of the untreated control (Plasmopara viticola; 12.5 ppm in the spray liquor): 0%
Efficacy in % of the untreated control (Plasmopara viticola; 50 ppm in the spray liquor): 0%
Efficacy in % of the untreated control (Botrytis cinerea; 12.5 ppm in the spray liquor): 11%
Efficacy in % of the untreated control (Botrytis cinerea; 100 ppm in the spray liquor): 56%

N#Cc1sc2c(=O)c3ccccc3c(=O)c=2sc1C#N [dithianon (L-3), 5,10-dioxo-5,10-dihydronaphtho[2,3-b][1,4]dithiine-2,3-dicarbonitrile]
Efficacy in % of the untreated control (Phytophthora infestans): 0%

CC(Cc1ccc(C(C)(C)C)cc1)CN1CC(C)OC(C)C1 [fenpropimorph (D-1), 4-[3-(4-tert-butylphenyl)-2-methylpropyl]-2,6-dimethylmorpholine]
Efficacy in % of the untreated control ([5]; 15 ppm in the spray liquor): 0%
Efficacy in % of the untreated control ([5]; 30 ppm in the spray liquor): 67%

COC(=O)NC(=S)Nc1ccccc1NC(=S)NC(=O)OC [thiophanate-methyl (L-4), dimethyl 1,2-phenylenebis(iminocarbonothioyl)bis(carbamate)]
Efficacy in % of the untreated control ([2]; 6.3 ppm in the spray liquor): 0%
Efficacy in % of the untreated control ([2]; 100 ppm in the spray liquor): 0%
Efficacy in % of the untreated control (Alternaria solani [3]; 100 ppm in the spray liquor): 0%

CC(C)NC(=O)N1CC(=O)N(c2cc(Cl)cc(Cl)c2)C1=O [iprodione (F-1), N-isopropyl-3-(3,5-dichlorophenyl)-2,4-dioxoimidazolidine-1-carboxamide]
Efficacy in % of the untreated control ([2]; 12.5 ppm in the spray liquor): 0%
Efficacy in % of the untreated control ([2]; 50 ppm in the spray liquor): 0%
Efficacy in % of the untreated control (Alternaria solani [3]; 12.5 ppm in the spray liquor): 0%
Efficacy in % of the untreated control (Alternaria solani [3]; 100 ppm in the spray liquor): 0%
